Source: EP4471049A1 (Zealand Pharma A/S, priority 2023, dated 2024)

Tests used:
[1] = target: IL-23 mediated STAT3 signalling (Homo sapiens, UniProt Q5VWK5); test: Functional inhibition of IL-23 mediated STAT3 signalling (phospho-STAT3 Tyr705 MSD, DB cells); format: cell-based; conditions: Example 2 (Tables 2-1 to 2-4), read-out: IC50 (pSTAT3)
Protocol: The ability of compounds to inhibit IL-23 mediated signalling was determined in the human-derived DB cell line (CRL-2289) (hereafter referred to as DB cells), which endogenously expresses the human IL-23R and human IL-12R β1 subunits. Upon binding of IL-23, the IL-23R forms a heterodimer signalling complex together with IL-12R β1, which through the JAK2/STAT3 pathway promotes phosphorylation of STAT3 to form phospho-STAT3. In the assay, the functional antagonism of IL-23 mediated phospho-STAT3 formation in DB cells by the compound is quantified using reagents capable of measuring the phosphorylation state of Tyr705 of STAT3 in the form of a phospho-STAT3 (Tyr705) MSD (Meso Scale Discovery) kit.
[…]. For compounds tested in this assay, the response was normalized relative to control values to calculate the IC50 and maximal inhibitory response from a concentration response curve of the compound in presence of a fixed concentration of human IL-23.
The assay procedure was as follows. DB cells were maintained in growth medium consisting of RPMI-1640 [Invitrogen 61870-010] supplemented with 10% V/V Foetal Bovine Serum (FBS) [(heat inactivated), Invitrogen 10270-106], and 1% V/V Penicillin-Streptomycin (Pen-Strep) Solution [Invitrogen 15140]. On the day of assay, cells were resuspended in Assay buffer consisting of RPMI-1640 [Invitrogen 61870-010] supplemented with 0.1 % w/V BSA [Sigma-Aldrich A9430] to a density of 7.5x10^6 cells/mL. Compounds to be tested for inhibition of hIL-23 mediated signalling were serially diluted in Assay buffer to 3X the final concentration. A solution of hIL-23 corresponding to 3X the EC80 of hIL-23 (1.7 nM) was also prepared in Assay buffer. To initiate the assay, 20 µL of DB cell suspension (corresponding to 150.000 cells/well) was added to the wells of a 96-well V-bottom Polypropylene plate [Corning 3363] followed by addition of 3X 20 µL of the diluted test compounds to separate wells. Following preincubation of the DB cells with inhibitor for 15 min in a cell incubator (37 °C, 5% CO2), 20 µL of the prepared 3X the EC80 of hIL-23 solution was added to each well and incubated for 90 min in a cell incubator (37 °C, 5% CO2). For some wells buffer only or IL-23 only corresponding to the EC80 was added to obtain readouts needed for normalization. To terminate the assay, the plate was spun at 1000 G for 5 min to pellet cells, the supernatant removed using an 8-channel manual pipette, and then added 50 µL/well Complete Lysis Buffer from the MSD STAT3 kit (Cat# K150SVD, Mesoscale) to the cell pellet. To completely lyse cells to release phospho-STAT3 for detection, the plate was shaken for 10 min at room temperature (500 rpm) sealed with aluminium foil and placed at -80 °C for a minimum of 15 min. Detection of the phospho-STAT3 level in the cell lysate from the individual wells was determined using the MSD STAT3 kit (Cat# K150SVD, Mesoscale) and read on a Meso QuickPlex SQ 120 plate reader (Mesoscale).
For data analysis raw data counts from the Meso QuickPlex SQ 120 plate reader were normalized relative to the response by the EC80 of hIL-23 alone (no compound added) and the buffer level. Compound potency (IC50) and maximal inhibitory response (% inhibition) were estimated by computer-aided curve fitting using a 4-parameter logistic (4PL) non-linear model. […]. Typically compounds with a low IC50 are desired. Typically compounds capable of completely inhibiting the IL23-induced response are desired. […]. Table 3-2: hIL-23 (pSTAT3) antagonist IC50 and % inhibition data

[2] = Peptide stability in simulated intestinal fluid (SIF); format: in vitro ADME
Procedure, shortened: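 Peptides were incubated at 37 °C with gentle shaking in pH 6.8 potassium phosphate SIF containing porcine pancreatin (10 g/L). Supernatants were analysed by LC-HRMS. Percent remaining at each timepoint, including 4 h, was calculated relative to time zero from absolute peak areas.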

IL-23 mediated STAT3 signalling, sequence (Q5VWK5 24-629 limits assumed): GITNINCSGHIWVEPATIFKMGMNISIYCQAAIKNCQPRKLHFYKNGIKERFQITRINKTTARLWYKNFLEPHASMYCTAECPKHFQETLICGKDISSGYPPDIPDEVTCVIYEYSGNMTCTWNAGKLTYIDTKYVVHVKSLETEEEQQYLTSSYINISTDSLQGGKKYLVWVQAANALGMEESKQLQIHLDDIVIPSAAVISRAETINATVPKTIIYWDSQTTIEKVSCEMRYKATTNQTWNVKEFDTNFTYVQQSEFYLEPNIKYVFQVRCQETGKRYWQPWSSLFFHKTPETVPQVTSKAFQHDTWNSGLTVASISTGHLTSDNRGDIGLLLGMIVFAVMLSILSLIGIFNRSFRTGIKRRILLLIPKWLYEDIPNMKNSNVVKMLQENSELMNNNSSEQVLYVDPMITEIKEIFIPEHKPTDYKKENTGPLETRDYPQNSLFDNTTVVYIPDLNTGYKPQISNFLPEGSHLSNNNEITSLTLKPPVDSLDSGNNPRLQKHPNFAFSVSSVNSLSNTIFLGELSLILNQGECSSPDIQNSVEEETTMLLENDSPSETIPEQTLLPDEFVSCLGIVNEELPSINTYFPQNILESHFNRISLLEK

In the case of `CC(C)C[C@]1(C)NC(=O)[C@H](Cc2ccc3ccccc3c2)NC(=O)[C@H](Cc2ccc(OCCN)cc2)NC(=O)[C@@H]2CCNC(=O)CC[C@H](NC(=O)[C@H](CO)NC(=O)Cc3ccc(cc3)CNC(=O)CC[C@@H](C(=O)N[C@@H](CCN)C(=O)NCCCCc3cccnc3)NC1=O)C(=O)N[C@@H](Cc1c[nH]c3ccccc13)C(=O)N[C@@H](CCC(N)=O)C(=O)N2` [Compound 6, [4-Aminomethyl-phenylacetyl](1c)*SE(2c)WQ[Dab](2c)[Y(2-aminoethoxy)][2-Nal][2-Me-Leu]E(1c)[Dab]-[NH-(4-(pyridin-3-yl)butanyl)]], the IC50 [1] is reported as 3.2 nM, the “SIF (% remaining 4 h)” value ([2]; 4 h, 37 °C, pH 6.8, porcine pancreatin 10 g/L, 10 µM) is reported as 73% and the remaining at 4 h, 10 µM ([2]; pig, simulated intestinal fluid (SIF) with porcine pancreatin, pH 6.8, Example 2 (Tables 2-1 to 2-4), intact peptide remaining after 4 h, read-out: SIF (% after 4 h)) is reported as 73%.
